Test results as given in the kinase profiling compilation of Christmann-Franck et al. (2016).

Assays:
Test in all cases: radiometric filter-binding kinase assay
[1] = system: AKT2 (human), P31751 [S474D]
[2] = target: BTK (human) (UniProt Q06187)
[3] = target: CDK2 CCNA2 (human) (UniProt P20248+P24941)
[4] = target: CHEK2 (human) (UniProt O96017)
[5] = target: CSK (human) (UniProt P41240)
[6] = target: CSNK1D (human) (UniProt P48730)
[7] = target: EPHA4 (human) (UniProt P54764)
[8] = target: EPHB1 (human) (UniProt P54762)
[9] = target: EPHB4 (human) (UniProt P54760)
Chain of EPHB4 (human) (P54760 whole entry, looked up): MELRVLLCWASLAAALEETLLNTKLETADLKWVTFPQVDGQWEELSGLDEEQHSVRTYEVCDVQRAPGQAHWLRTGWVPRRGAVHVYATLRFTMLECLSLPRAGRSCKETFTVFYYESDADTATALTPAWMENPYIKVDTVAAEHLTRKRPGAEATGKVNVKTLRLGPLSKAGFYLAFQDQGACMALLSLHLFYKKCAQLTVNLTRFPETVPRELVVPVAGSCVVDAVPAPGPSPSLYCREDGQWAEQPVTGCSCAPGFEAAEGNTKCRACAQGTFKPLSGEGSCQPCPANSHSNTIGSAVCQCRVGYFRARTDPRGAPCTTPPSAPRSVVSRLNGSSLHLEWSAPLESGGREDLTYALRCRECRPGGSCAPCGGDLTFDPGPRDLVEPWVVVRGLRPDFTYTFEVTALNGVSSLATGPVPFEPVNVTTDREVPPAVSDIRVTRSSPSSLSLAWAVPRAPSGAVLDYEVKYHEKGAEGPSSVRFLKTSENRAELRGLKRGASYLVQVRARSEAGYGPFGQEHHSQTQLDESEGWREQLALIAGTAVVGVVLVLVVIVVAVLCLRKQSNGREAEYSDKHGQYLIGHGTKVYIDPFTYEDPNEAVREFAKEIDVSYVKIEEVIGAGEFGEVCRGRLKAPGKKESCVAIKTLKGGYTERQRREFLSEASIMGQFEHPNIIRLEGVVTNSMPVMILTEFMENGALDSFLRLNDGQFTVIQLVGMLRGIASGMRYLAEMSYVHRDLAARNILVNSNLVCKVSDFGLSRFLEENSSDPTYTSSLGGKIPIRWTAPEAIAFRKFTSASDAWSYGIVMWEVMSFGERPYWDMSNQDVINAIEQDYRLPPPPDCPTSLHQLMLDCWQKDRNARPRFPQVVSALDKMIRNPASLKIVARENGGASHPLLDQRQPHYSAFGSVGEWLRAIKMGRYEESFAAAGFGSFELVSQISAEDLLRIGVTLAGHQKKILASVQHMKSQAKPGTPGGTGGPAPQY

[10] = target: FLT1 (human) (UniProt P17948)
[11] = target: IKBKB (human) (UniProt O14920)
[12] = target: IKBKE (human) (UniProt Q14164)
[13] = target: INSRR (human) (UniProt P14616)
[14] = target: MAP2K1 (human) (UniProt Q02750)
[15] = target: MAPK1 (human) (UniProt P28482)
[16] = target: MAPK14 (human) (UniProt Q16539)
[17] = target: MAPK15 (human) (UniProt Q8TD08)
[18] = target: MAPK3 (human) (UniProt P27361)
[19] = target: MAPKAPK3 (human) (UniProt Q16644)
Chain of MAPKAPK3 (human) (Q16644 whole entry, looked up): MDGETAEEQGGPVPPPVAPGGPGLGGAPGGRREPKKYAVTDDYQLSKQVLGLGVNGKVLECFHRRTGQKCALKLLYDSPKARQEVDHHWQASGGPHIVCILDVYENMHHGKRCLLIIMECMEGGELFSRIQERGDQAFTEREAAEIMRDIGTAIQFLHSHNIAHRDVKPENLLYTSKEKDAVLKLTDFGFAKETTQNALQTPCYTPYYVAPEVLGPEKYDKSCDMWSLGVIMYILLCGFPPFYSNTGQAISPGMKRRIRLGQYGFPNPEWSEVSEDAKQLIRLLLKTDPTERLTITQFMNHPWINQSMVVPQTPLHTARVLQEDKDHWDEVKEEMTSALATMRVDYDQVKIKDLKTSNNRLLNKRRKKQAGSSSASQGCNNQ

[20] = target: MKNK2 (human) (UniProt Q9HBH9)
[21] = target: NEK2 (human) (UniProt P51955)
Chain of NEK2 (human) (P51955 whole entry, looked up): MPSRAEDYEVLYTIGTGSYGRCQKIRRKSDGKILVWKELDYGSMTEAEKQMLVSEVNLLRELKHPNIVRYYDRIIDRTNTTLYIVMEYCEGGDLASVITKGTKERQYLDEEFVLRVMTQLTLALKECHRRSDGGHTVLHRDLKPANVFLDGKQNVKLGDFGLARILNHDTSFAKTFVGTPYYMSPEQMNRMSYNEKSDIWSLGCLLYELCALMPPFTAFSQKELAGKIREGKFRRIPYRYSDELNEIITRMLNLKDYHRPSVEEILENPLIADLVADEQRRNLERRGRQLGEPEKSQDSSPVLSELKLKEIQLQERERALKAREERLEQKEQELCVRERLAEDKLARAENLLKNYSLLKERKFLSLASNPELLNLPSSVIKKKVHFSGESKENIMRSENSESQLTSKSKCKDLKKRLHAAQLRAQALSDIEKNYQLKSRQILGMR

[22] = target: NEK6 (human) (UniProt Q9HC98)
[23] = target: PAK7 (human) (UniProt Q9P286)
[24] = target: PIM2 (human) (UniProt Q9P1W9)
[25] = target: PLK1 (human) (UniProt P53350)
[26] = system: PRKAA1 or PRKAA2 (rat); conditions: accession and sequence are those of the human protein
[27] = target: PRKACA (human) (UniProt P17612)
[28] = target: RIPK2 (human) (UniProt O43353)
[29] = target: RPS6KA1 KD1 KD2 (human) (UniProt Q15418)
Chain of RPS6KA1 KD1 KD2 (human) (Q15418 whole entry, looked up): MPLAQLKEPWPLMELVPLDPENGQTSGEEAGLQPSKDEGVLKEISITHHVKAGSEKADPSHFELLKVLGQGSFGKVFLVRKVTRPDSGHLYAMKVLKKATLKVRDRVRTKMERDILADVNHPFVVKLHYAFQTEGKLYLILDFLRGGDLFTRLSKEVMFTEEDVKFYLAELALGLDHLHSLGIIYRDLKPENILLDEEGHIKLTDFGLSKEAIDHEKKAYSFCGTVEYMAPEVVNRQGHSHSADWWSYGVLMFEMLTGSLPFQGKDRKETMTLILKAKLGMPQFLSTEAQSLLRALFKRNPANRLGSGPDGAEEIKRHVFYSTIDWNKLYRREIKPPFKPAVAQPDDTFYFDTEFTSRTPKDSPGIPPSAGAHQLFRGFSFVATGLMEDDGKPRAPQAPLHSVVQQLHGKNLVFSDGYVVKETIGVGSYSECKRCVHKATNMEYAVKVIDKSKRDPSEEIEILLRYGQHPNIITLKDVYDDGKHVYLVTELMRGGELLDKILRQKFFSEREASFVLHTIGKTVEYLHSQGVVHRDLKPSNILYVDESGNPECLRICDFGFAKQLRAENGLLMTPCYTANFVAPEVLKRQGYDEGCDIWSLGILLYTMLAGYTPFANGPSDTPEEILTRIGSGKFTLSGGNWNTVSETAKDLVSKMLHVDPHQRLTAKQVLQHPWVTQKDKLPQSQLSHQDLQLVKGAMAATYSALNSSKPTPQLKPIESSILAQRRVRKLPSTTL

[30] = target: RPS6KA3 KD1 KD2 (human) (UniProt P51812)
[31] = target: RPS6KA5 KD1 KD2 (human) (UniProt O75582)
[32] = system: RPS6KB1 (human), P23443 [T412E]
Chain of RPS6KB1 (human), P23443 [T412E] (P23443 whole entry T412E, looked up): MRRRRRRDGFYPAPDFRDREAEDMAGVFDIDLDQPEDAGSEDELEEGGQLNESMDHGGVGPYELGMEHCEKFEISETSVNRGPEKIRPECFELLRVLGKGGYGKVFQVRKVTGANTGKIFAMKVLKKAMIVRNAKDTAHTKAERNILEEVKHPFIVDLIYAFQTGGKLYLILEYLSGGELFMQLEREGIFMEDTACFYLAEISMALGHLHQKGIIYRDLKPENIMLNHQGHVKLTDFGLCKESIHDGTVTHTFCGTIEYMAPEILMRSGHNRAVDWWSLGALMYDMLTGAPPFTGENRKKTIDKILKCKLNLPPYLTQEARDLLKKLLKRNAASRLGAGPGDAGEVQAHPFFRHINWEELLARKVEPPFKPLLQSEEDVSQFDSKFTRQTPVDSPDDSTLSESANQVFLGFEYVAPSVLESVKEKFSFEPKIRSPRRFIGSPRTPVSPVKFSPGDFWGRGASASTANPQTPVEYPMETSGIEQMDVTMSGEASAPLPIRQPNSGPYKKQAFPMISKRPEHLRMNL

[33] = target: SRC (human) (UniProt P12931)
Chain of SRC (human) (P12931 whole entry, looked up): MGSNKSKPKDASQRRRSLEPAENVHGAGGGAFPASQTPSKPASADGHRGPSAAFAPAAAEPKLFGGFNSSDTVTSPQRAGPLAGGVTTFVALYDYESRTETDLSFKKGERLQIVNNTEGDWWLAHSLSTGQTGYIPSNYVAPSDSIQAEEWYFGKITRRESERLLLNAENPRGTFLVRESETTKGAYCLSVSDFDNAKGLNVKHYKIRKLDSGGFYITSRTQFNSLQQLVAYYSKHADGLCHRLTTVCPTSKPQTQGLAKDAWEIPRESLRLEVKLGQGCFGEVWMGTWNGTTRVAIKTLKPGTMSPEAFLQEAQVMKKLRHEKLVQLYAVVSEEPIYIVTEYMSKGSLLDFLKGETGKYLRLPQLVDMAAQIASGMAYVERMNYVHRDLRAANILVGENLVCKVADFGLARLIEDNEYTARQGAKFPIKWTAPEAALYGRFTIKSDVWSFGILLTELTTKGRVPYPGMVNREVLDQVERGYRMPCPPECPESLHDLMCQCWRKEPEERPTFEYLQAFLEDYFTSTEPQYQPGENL

[34] = target: SYK (human) (UniProt P43405)
[35] = target: TTK (human) (UniProt P33981)

Chain of EPHA4 (human) (P54764 whole entry, looked up): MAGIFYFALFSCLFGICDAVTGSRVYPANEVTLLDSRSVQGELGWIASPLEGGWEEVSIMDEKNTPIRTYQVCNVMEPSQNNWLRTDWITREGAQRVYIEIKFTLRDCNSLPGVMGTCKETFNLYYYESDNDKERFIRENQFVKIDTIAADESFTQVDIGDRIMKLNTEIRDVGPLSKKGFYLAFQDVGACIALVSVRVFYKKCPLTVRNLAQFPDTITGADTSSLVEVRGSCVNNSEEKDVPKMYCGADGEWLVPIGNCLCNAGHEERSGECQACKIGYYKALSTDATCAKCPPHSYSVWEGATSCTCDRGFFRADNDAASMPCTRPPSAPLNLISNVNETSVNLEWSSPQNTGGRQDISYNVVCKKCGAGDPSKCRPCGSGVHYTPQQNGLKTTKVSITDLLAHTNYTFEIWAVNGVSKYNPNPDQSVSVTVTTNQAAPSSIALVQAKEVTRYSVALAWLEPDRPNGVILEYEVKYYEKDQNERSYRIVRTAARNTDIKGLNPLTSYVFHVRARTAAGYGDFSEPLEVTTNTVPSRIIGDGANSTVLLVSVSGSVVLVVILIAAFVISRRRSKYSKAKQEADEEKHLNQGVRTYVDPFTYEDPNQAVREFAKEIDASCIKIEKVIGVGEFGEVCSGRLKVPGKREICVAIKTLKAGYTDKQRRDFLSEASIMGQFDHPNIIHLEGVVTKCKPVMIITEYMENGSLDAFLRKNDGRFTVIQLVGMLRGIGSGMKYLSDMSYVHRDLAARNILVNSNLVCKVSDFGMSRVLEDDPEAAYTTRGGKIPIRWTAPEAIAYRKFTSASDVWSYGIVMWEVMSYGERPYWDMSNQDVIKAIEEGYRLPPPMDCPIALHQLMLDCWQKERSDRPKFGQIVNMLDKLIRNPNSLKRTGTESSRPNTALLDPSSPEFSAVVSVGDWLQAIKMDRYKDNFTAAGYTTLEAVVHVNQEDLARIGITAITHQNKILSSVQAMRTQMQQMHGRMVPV
Chain of CSK (human) (P41240 whole entry, looked up): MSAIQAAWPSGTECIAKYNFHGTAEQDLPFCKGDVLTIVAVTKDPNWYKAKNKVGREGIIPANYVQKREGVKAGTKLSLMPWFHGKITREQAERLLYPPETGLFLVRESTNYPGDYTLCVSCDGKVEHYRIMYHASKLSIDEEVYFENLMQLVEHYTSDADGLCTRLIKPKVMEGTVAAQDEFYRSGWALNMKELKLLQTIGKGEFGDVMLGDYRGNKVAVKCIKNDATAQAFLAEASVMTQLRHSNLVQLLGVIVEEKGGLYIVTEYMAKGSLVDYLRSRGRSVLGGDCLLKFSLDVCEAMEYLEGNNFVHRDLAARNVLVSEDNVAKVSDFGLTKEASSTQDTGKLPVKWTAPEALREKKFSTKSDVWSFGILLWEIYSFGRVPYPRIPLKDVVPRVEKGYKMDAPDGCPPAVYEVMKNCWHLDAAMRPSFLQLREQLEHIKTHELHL

## Cc1ccc(Sc2cnc(Nc3cccc(Br)n3)s2)cc1C(=O)N1CCN(C(=O)CN)CC1
[1]; compound 0.1 µM
  residual activity: 80%
[1]; compound 1.0 µM
  residual activity: 94%
[1]; compound 10.0 µM
  residual activity: 46%
[2]; compound 0.1 µM
  residual activity: 96%
[2]; compound 1.0 µM
  residual activity: 53%
[2]; compound 10.0 µM
  residual activity: 8%
[3]; compound 0.1 µM
  residual activity: 35%
[3]; compound 1.0 µM
  residual activity: 15%
[3]; compound 10.0 µM
  residual activity: 3%
[4]; compound 0.1 µM
  residual activity: 20%
[4]; compound 1.0 µM
  residual activity: 18%
[4]; compound 10.0 µM
  residual activity: 4%
[5]; compound 0.1 µM
  residual activity: 103%
[5]; compound 1.0 µM
  residual activity: 88%
[5]; compound 10.0 µM
  residual activity: 9%
[6]; compound 0.1 µM
  residual activity: 99%
[6]; compound 1.0 µM
  residual activity: 87%
[6]; compound 10.0 µM
  residual activity: 68%
[7]; compound 0.1 µM
  residual activity: 22%
[7]; compound 1.0 µM
  residual activity: 29%
[7]; compound 10.0 µM
  residual activity: 0%
[8]; compound 0.1 µM
  residual activity: 53%
[8]; compound 1.0 µM
  residual activity: 36%
[9]; compound 0.1 µM
  residual activity: 15%
[9]; compound 1.0 µM
  residual activity: 13%
[9]; compound 10.0 µM
  residual activity: 4%
[10]; compound 0.1 µM
  residual activity: 56%
[10]; compound 1.0 µM
  residual activity: 52%
[10]; compound 10.0 µM
  residual activity: 19%
[11]; compound 0.1 µM
  residual activity: 107%
[11]; compound 1.0 µM
  residual activity: 92%
[11]; compound 10.0 µM
  residual activity: 84%
[12]; compound 0.1 µM
  residual activity: 91%
[12]; compound 1.0 µM
  residual activity: 80%
[12]; compound 10.0 µM
  residual activity: 76%
[13]; compound 0.1 µM
  residual activity: 69%
[13]; compound 1.0 µM
  residual activity: 80%
[13]; compound 10.0 µM
  residual activity: 52%
[14]; compound 0.1 µM
  residual activity: 96%
[14]; compound 1.0 µM
  residual activity: 85%
[14]; compound 10.0 µM
  residual activity: 40%
[15]; compound 0.1 µM
  residual activity: 99%
[15]; compound 1.0 µM
  residual activity: 103%
[15]; compound 10.0 µM
  residual activity: 85%
[16]; compound 0.1 µM
  residual activity: 101%
[16]; compound 1.0 µM
  residual activity: 89%
[16]; compound 10.0 µM
  residual activity: 47%
[17]; compound 0.1 µM
  residual activity: 1%
[17]; compound 1.0 µM
  residual activity: 1%
[17]; compound 10.0 µM
  residual activity: 1%
[18]; compound 0.1 µM
  residual activity: 103%
[18]; compound 1.0 µM
  residual activity: 78%
[18]; compound 10.0 µM
  residual activity: 99%
[19]; compound 0.1 µM
  residual activity: 91%
[19]; compound 1.0 µM
  residual activity: 77%
[19]; compound 10.0 µM
  residual activity: 85%
[20]; compound 0.1 µM
  residual activity: 120%
[20]; compound 1.0 µM
  residual activity: 92%
[20]; compound 10.0 µM
  residual activity: 73%
[21]; compound 0.1 µM
  residual activity: 108%
[21]; compound 1.0 µM
  residual activity: 87%
[21]; compound 10.0 µM
  residual activity: 71%
[22]; compound 0.1 µM
  residual activity: 103%
[22]; compound 1.0 µM
  residual activity: 101%
[22]; compound 10.0 µM
  residual activity: 85%
[23]; compound 0.1 µM
  residual activity: 62%
[23]; compound 1.0 µM
  residual activity: 58%
[23]; compound 10.0 µM
  residual activity: 22%
[24]; compound 0.1 µM
  residual activity: 94%
[24]; compound 1.0 µM
  residual activity: 92%
[24]; compound 10.0 µM
  residual activity: 77%
[25]; compound 0.1 µM
  residual activity: 97%
[25]; compound 1.0 µM
  residual activity: 85%
[25]; compound 10.0 µM
  residual activity: 114%
[26]; compound 0.1 µM
  residual activity: 63%
[26]; compound 1.0 µM
  residual activity: 47%
[26]; compound 10.0 µM
  residual activity: 3%
[27]; compound 0.1 µM
  residual activity: 98%
[27]; compound 1.0 µM
  residual activity: 88%
[27]; compound 10.0 µM
  residual activity: 54%
[28]; compound 0.1 µM
  residual activity: 20%
[28]; compound 1.0 µM
  residual activity: 17%
[28]; compound 10.0 µM
  residual activity: 8%
[29]; compound 0.1 µM
  residual activity: 31%
[29]; compound 1.0 µM
  residual activity: 29%
[29]; compound 10.0 µM
  residual activity: 6%
[30]; compound 0.1 µM
  residual activity: 67%
[30]; compound 1.0 µM
  residual activity: 64%
[30]; compound 10.0 µM
  residual activity: 18%
[31]; compound 0.1 µM
  residual activity: 59%
[31]; compound 1.0 µM
  residual activity: 51%
[31]; compound 10.0 µM
  residual activity: 22%
[32]; compound 0.1 µM
  residual activity: 95%
[32]; compound 1.0 µM
  residual activity: 92%
[32]; compound 10.0 µM
  residual activity: 11%
[33]; compound 0.1 µM
  residual activity: 22%
[33]; compound 1.0 µM
  residual activity: 20%
[33]; compound 10.0 µM
  residual activity: 2%
[34]; compound 0.1 µM
  residual activity: 82%
[34]; compound 1.0 µM
  residual activity: 64%
[34]; compound 10.0 µM
  residual activity: 28%
[35]; compound 0.1 µM
  residual activity: 75%
[35]; compound 1.0 µM
  residual activity: 73%
[35]; compound 10.0 µM
  residual activity: 42%
